Our source for the CC50, CC50/EC50 and EC50 values is patent publication US8232278B2 (Gilead Sciences, Inc., priority 2005, dated 2012).

Where two headings read alike, the source gives them in different places.

The subject of data set [1] is Huh-7 HCV replicon cells. The data set is described as follows: CC50 assay in Huh-7 HCV replicon cells (CellTiter-Glo). The format is cell-based, human. To be noted: 3 days, 50% cytostatic concentration. The method, then: (§1) The anti-HCV activity of the pyrido[3,2-d]pyrimidine derivatives of this invention was tested in a human hepatoma Huh-7 cell line harbouring a HCV replicon. The assay comprised the following steps:
(§2) Step 1: Compound Preparation and Serial Dilution
(§3) • 1. for water soluble pyrido[3,2-d]pyrimidine derivatives, a volume of 500 μL of solution in cell media (DMEM, 10% FBS, P/S, L-Glutamine) was prepared with a concentration being twice the concentration of the starting final serial dilution concentration. […] The rest of the plate, columns 2-12, was filled with 100 μL of cell media. The plate was then placed on a Precision 2000 Workstation to start the serial dilution. Compounds were diluted three times each step from column 1 to column 10. Column 11 was used as a blank control (no compound added). • 2. for pyrido[3,2-d]pyrimidine derivatives requiring DMSO to dissolve, serial dilution is performed in 50% DMSO in a 384-well plate. A solution containing a compound at 100-fold concentration of the starting final serial dilution concentration was prepared in 50% DMSO and added to the pre-specified wells in column 1 of a polypropylene 384-well plate. The plate was then placed on a Precision 2000 Workstation to start the serial dilution. After the serial dilution, a volume of 2 μL of the solution was transferred from the 384-well plate to a 96-well cell culture plate containing 100 μL of cell media on a Biomek FX Workstation. The DMSO concentration in the final assay condition was 0.5% after cells are added to the plate and the total volume in each well is brought to 200 μL. Step 2: to each well of the serial dilution plate prepared above, 100 μL of cell media containing 6000 suspended Huh-7 HCV replicon cells was added with a Multidrop workstation. The plates were incubated for 3 days at 37° C. with 5% CO2. Step 3: Detection: • a) for the EC50 assay, the media in a 96-well cell culture plate was aspirated with a Biotek EL405 plate-washer. A volume of 200 μL of a solution containing a 1:1 mixture of cell-lysis buffer (Promega, Luciferase Cell Culture Lysis 5× Reagent, cat. #E1531) and luciferase substrate solution (Promega, Luciferase Assay, cat. #E4550) was added to each well of the plate with Multidrop.
(§4) Results in table 7 are expressed by the following data: • the 50% effective concentration (EC50), i.e. the concentration that protects 50% of the cell monolayer from virus-induced cythopathic effect, and • the 50% cytostatic concentration (CC50), i.e. the concentration that results in 50% inhibition of cell growth. Table 7 further indicates the nature of substituents being present in positions 2, 4 and 6 of the pyrido[3,2-d]pyrimidine derivatives of the invention.
(In antiviral work, replicon cells carry a viral genome segment that copies itself.)

Data set [2] deals with HCV replicon. The data set is described as follows: Anti-HCV assay / replicon assay (EC50, luciferase read-out). The format is cell-based, hepatitis C virus (HCV). Conditions: for CC50/EC50: CC50/EC50 ratio (selectivity index). The method, then:
as §1, §2, §3, §4

Setting [3] is: human hepatoma Huh-7 cell line harbouring a HCV replicon, 3 days, luciferase luminescence, read-out: EC50.

Broadly, the CC50 is the concentration that lowers cell viability or growth by half. Lower therefore signals greater toxicity to the cells. Broadly, the EC50 is the midpoint of the concentration-response curve. As to “2-amino-4-[N-3-chloro-phenyl-carbamoyl)-piperazin-1-yl]-6-(3,4-(methylenedioxy)phenyl)pyrido[3,2-d]pyrimidine [Example 173]”, the CC50 in data set [1] amounted to 3.4 µM. Moreover, the CC50/EC50 in data set [2] is given as 143. Besides, the EC50 in data set [2] (setting [3]) came to 0.024 µM.

Take `CCOc1nc(N)nc2ccc(-c3ccc(OC)c(OC)c3)nc12` [Example 307, 2-amino-4-ethoxy-6-(3,4-dimethoxy)pyrido[3,2-d]pyrimidine]: the midpoint of cytotoxicity in data set [1], the CC50, lay at 50.1 µM. Moreover, the CC50/EC50 in data set [2] is given as 264. In addition, the half-maximal effective concentration (EC50) in data set [2] (setting [3]) is 0.19 µM.

The molecule `CCSc1nc(N)nc2ccc(-c3ccc(F)cc3)nc12` [Example 393, 2-amino-4-thioethyl-6-(4-fluorophenyl)pyrido(3,2-d)pyrimidine] yielded a CC50 in data set [1] of 36 µM. Besides, the CC50/EC50 in data set [2] stood at 154. In addition, the EC50 in data set [2] (setting [3]) was 0.234 µM.

In data set [1], `Cc1ccc(-c2ccc3ncnc(N4CCN(C(=O)Nc5cccc(Cl)c5)CC4)c3n2)cc1C` [Example 84] gave a half-maximal cytotoxic concentration (CC50) of 21.8 µM. For the same molecule, the CC50/EC50 in data set [2] amounted to 167. Further, the EC50 in data set [2] (setting [3]) was found to be 0.13 µM.

Consider `Nc1nc(N2CCN(C(=O)COc3ccc(Cl)cc3)CC2)c2nc(-c3cccc(Cl)c3)ccc2n1` [Example 385, 2-amino-4-[N-(4-chlorophenoxyacetyl)piperazin-1-yl]-6-(3-chlorophenyl)pyrido-[3,2-d]pyrimidine], for which, in data set [1], half-maximal cytotoxicity (CC50) was put at 7.4 µM. In addition, the CC50/EC50 in data set [2] was 122. For the same molecule, the concentration for a half-maximal effect (EC50) in data set [2] (setting [3]) was 0.061 µM.

As to `COc1ccc(-c2ccc3nc(N)nc(NCCN4CCOCC4)c3n2)cc1OC` [Example 38, 2-amino-4-[4-(2-aminoethyl)morpholino]-6-(3,4-dimethoxyphenyl)-pyrido[3,2-d]pyrimidine], the CC50 in data set [1] was determined as 7.1 µM. Besides, the CC50/EC50 in data set [2] turned out to be 151. The half-maximal effective concentration (EC50) in data set [2] (setting [3]) is 0.047 µM.

`CCOc1ccc(-c2ccc3ncnc(N4CCN(C(=O)Nc5cccc(Cl)c5)CC4)c3n2)cc1Cl` [Example 86] registered a cytotoxic concentration (CC50) in data set [1] of 25.1 µM. The CC50/EC50 in data set [2] is reported as 100. Also, the half-maximal effective concentration (EC50) in data set [2] (setting [3]) stood at 0.25 µM.

In data set [1], “4-ethoxy-6-(4-methoxy-phenyl)-pyrido[3,2-d]pyrimidin-2-ylamine [Example 461]” gave a CC50 of 25.1 µM. For the same molecule, the CC50/EC50 in data set [2] stood at 93. Besides, the concentration giving a half-maximal response (EC50) in data set [2] (setting [3]) came to 0.27 µM.

Regarding `CCOc1nc(N)nc2ccc(-c3ccc(N)cc3)nc12` [Example 465, 6-(4-amino-phenyl)-4-ethoxy-pyrido[3,2-d]pyrimidin-2-ylamine], half-maximal cytotoxicity in data set [1] (CC50) was put at 50.1 µM. In addition, the CC50/EC50 in data set [2] was 145. Also, the concentration for a half-maximal effect (EC50) in data set [2] (Hepatitis C virus, Huh-7, 72 h) was 0.346 µM.

`Nc1nc(N2CCOCC2)c2nc(-c3ccc4c(c3)OCO4)ccc2n1` [Example 180, 2-amino-4-morpholino-6-(3,4-(methylenedioxy)phenyl)pyrido[3,2-d]pyrimidine] had a CC50 in data set [1] of 25.1 µM. Further, the CC50/EC50 in data set [2] is 167. For the same molecule, the half-maximal effective concentration (EC50) in data set [2] (setting [3]) stood at 0.15 µM.

The molecule “4-[(N-4-chloro-phenylcarbamoyl)-piperazin-1-yl]-6-(3-methyl-4-methoxyphenyl)-pyrido[3,2-d]pyrimidine [Example 121]” yielded a CC50 in data set [1] of 19.4 µM. Besides, the CC50/EC50 in data set [2] was determined as 162. In addition, the 50% effective concentration (EC50) in data set [2] (setting [3]) stood at 0.12 µM.

In data set [1], `Nc1nc(N2CCN(C(=O)COc3ccc(Cl)cc3)CC2)c2nc(-c3ccsc3)ccc2n1` [Example 382, 2-amino-4-[N-(4-chlorophenoxyacetyl)piperazin-1-yl]-6-(thiophen-3-yl)pyrido-[3,2-d]pyrimidine] had a CC50 of 13.1 µM. The CC50/EC50 in data set [2] came to 1523. Moreover, the EC50 in data set [2] (setting [3]) came out at 0.009 µM.

Consider `COc1ccc(-c2ccc3nc(N)nc(N4CCN(Cc5ccc6c(c5)OCO6)CC4)c3n2)cc1OC` [Example 55, 2-amino-4-(1-piperonyl-piperazin-1-yl)-6-(3,4-dimethoxyphenyl)-pyrido[3,2-d]pyrimidine], for which the CC50 in data set [1] came out at 25.1 µM. Further, the CC50/EC50 in data set [2] worked out at 74. For the same molecule, in data set [2] (setting [3]), the EC50 is 0.34 µM.

`Nc1nc(N2CCN(C(=O)COc3ccc(Cl)cc3)CC2)c2nc(-c3ccc(Cl)c(Cl)c3)ccc2n1` [Example 188, 2-amino-4-[N-(4-chlorophenoxy-acetyl)-piperazin-1-yl]-6-(3,4-dichlorophenyl)-pyrido[3,2-d]pyrimidine] had a CC50 in data set [1] of 12.3 µM. Besides, the CC50/EC50 in data set [2] is 211. The half-maximal effective concentration (EC50) in data set [2] (setting [3]) is 0.058 µM.

Turning to `O=C(Nc1cccc(Cl)c1)N1CCN(c2ncnc3ccc(-c4ccc5c(c4)OCO5)nc23)CC1` [Example 85, 4-[(N-3-chlorophenylcarbamoyl)-piperazin-1-yl]-6-(3,4-methylenedioxy)phenyl-pyrido[3,2-d]pyrimidine], in data set [1], the midpoint of cytotoxicity, the CC50, lay at 1.2 µM. Further, the CC50/EC50 in data set [2] is reported as 64. For the same molecule, the EC50 in data set [2] (setting [3]) was 0.019 µM.

In the case of “2-amino-4-(phenoxy-ethyl-piperazin-1-yl)-6-(3,4-dimethoxyphenyl)-pyrido[3,2-d]pyrimidine [Example 50]”, the cytotoxic concentration (CC50) in data set [1] amounted to 18 µM. Moreover, in data set [2], the CC50/EC50 is 310. The half-maximal effective concentration (EC50) in data set [2] (setting [3]) was found to be 0.058 µM.

`N#Cc1ccc(-c2ccc3nc(N)nc(N4CCN(C(=O)COc5ccc(Cl)cc5)CC4)c3n2)cc1` [Example 378, 2-amino-4-[N-(4-chlorophenoxyacetyl)piperazin-1-yl]-6-(4-cyanophenyl)pyrido-[3,2-d]pyrimidine]: the CC50 in data set [1] turned out to be 4.3 µM. The CC50/EC50 in data set [2] was found to be 571. In addition, in data set [2] (setting [3]), the 50% effective concentration (EC50) worked out at 0.008 µM.

In data set [1], `CCOc1nc(N)nc2ccc(-c3ccc(Cl)cc3)nc12` [Example 463, 6-(4-chloro-phenyl)-4-ethoxy-pyrido[3,2-d]pyrimidin-2-ylamine] displayed a half-maximal cytotoxic concentration (CC50) of 50.1 µM. Also, the CC50/EC50 in data set [2] is on record as 98. The concentration for a half-maximal effect (EC50) in data set [2] (Hepatitis C virus, Huh-7, 72 h) was 0.511 µM.

For the molecule `COc1cc(-c2ccc3ncnc(N4CCN(C(=O)Nc5cccc(Cl)c5)CC4)c3n2)ccc1OC(C)C` [Example 124], in data set [1], it took 2.5 µM to reach half-maximal cytotoxicity (CC50). Moreover, the CC50/EC50 in data set [2] was found to be 71. Besides, the 50% effective concentration (EC50) in data set [2] (setting [3]) is 0.035 µM.

Take `CCOc1nc(N)nc2ccc(-c3cccs3)nc12` [Example 467, 4-Ethoxy-6-thiophen-2-yl-pyrido[3,2-d]pyrimidin-2-ylamine]: in data set [1], the CC50 came out at 50.1 µM. In addition, the CC50/EC50 in data set [2] is 113. Also, the EC50 in data set [2] (Hepatitis C virus, 72 h, human hepatoma Huh-7 cell line harbouring a HCV replicon, 3 days, luciferase luminescence, read-out: EC50) stood at 0.443 µM.

“2-amino-4-[(N-3-chloro-phenyl-carbamoyl)-piperazin-1-yl]-6-(3-fluoro-4-ethoxyphenyl)pyrido-[3,2-d]pyrimidine [Example 171]” displayed a cytotoxic concentration (CC50) in data set [1] of 1.5 µM. Besides, the CC50/EC50 in data set [2] is 101. In addition, in data set [2] (setting [3]), the EC50 amounted to 0.015 µM.

Turning to `COc1ccc(-c2ccc3nc(N)nc(N4CCN(C(=O)COc5ccccc5)CC4)c3n2)cc1OC` [Example 65, 2-amino-4[(N-phenoxy-acetyl)-piperazin-1-yl]-6-(3,4-dimethoxyphenyl)-pyrido[3,2-d]pyrimidine], in data set [1], the cytotoxic concentration (CC50) was 25.1 µM. For the same molecule, the CC50/EC50 in data set [2] turned out to be 90. Also, the EC50 in data set [2] (setting [3]) was 0.28 µM.

The molecule `Nc1nc(N2CCN(C(=O)COc3ccc(Cl)cc3)CC2)c2nc(-c3ccc(F)cc3)ccc2n1` [Example 201, 2-amino-4-[(N-4-chloro-phenoxy-acetyl)-piperazin-1-yl]-6-(4-fluorophenyl)-pyrido[3,2-d]pyrimidine] returned a CC50 in data set [1] of 25.1 µM. Besides, the CC50/EC50 in data set [2] was 558. In data set [2] (setting [3]), the EC50 worked out at 0.045 µM.

Molecule `Cc1cccc(NC(=O)N2CCN(c3nc(N)nc4ccc(-c5ccc(F)cc5)nc34)CC2)c1` [Example 390, 2-amino-4-[N-(3-methylphenyl-carbamoyl)-piperazin-1-yl]-6-(4-fluorophenyl)-pyrido[3,2-d]pyrimidine] showed a cytotoxic concentration (CC50) in data set [1] of 3.5 µM. Moreover, in data set [2], the CC50/EC50 was found to be 575. Also, the EC50 in data set [2] (setting [3]) stood at 0.006 µM.

In the case of `COc1ccc(-c2ccc3nc(Nc4ccc(C)cc4)nc(N4CCN(C(=O)Nc5cccc(C)c5)CC4)c3n2)cc1OC` [Example 94, 2-(p-tolylamino)-4-[(N-3-methylphenylcarbamoyl)-piperazin-1-yl]-6-(3,4-dimethoxy-phenyl)-pyrido[3,2-d]pyrimidine], it took 25.1 µM to reach half-maximal cytotoxicity in data set [1] (CC50). In addition, the CC50/EC50 in data set [2] was determined as 339. Also, in data set [2] (setting [3]), the EC50 was 0.074 µM.

Turning to `CC(C)Sc1nc(N)nc2ccc(-c3ccc(F)cc3)nc12` [Example 394, 2-amino-4-thioisopropyl-6-(4-fluorophenyl)pyrido(3,2-d)pyrimidine], the CC50 in data set [1] worked out at 50.1 µM. Also, the CC50/EC50 in data set [2] is reported as 268. The EC50 in data set [2] (setting [3]) was 0.187 µM.
